Data from patent US20070167513A1, “Crystalline forms of duloxetine free base” (priority 2004, published 2007).
Counter-ions that a name gives are not always drawn. Like-named read-outs stand apart in the source and are kept apart here.

[1] = before exposure to heat or light
[2] = before exposure to heat or light, Hydrochloride
[3] = stress condition 45° C., Hydrochloride
[4] = stress condition 60° C., Hydrochloride
[5] = stress condition UV, Hydrochloride

Q: For `CNCC[C@H](Oc1cccc2ccccc12)c1cccs1` [[…] (from prior art)] [Duloxetine Hydrochloride, reference compound], which Description [1] is on record?
A: The Description was “White powder”.

Q: And the “SMI (single maximum impurity)” value [2]?
A: The value was 0.20%.

Q: What about the Total imp [2] of the same compound?
A: The Total imp was 0.48%.

Q: What about the Description [3] of the same compound?
A: Its Description is “Cream coloured”.

Q: And the “SMI (single maximum impurity)” value [3]?
A: Its value is 0.19%.

Q: And the Total imp [3]?
A: Its Total imp is 0.65%.

Q: What about the Description [4] of the same compound?
A: The Description was “Light pink”.

Q: What about the “SMI (single maximum impurity)” value [4] of the same compound?
A: Its value is 0.19%.

Q: What about the Total imp [4] of the same compound?
A: The Total imp was 0.70%.

Q: And the Description [5]?
A: The Description was “Light brown”.

Q: And the “SMI (single maximum impurity)” value [5]?
A: The value was 0.19%.

Q: And the Total imp [5]?
A: The Total imp was 0.66%.

Q: What does the source list for `CNCC[C@H](Oc1cccc2ccccc12)c1cccs1` [DULOXETINE HCI (from free base), Duloxetine Hydrochloride]?
A: Description [1]: White powder; SMI (single maximum impurity) [2]: 0.05%; Total imp [2]: 0.11%; resistance to degradation (compared with duloxetine hydrochloride prepared by conventional prior art methods): more resistant to degradation; Description [3]: White powder; SMI (single maximum impurity) [3]: 0.07%; Total imp [3]: 0.12%; Description [4]: White powder; SMI (single maximum impurity) [4]: 0.07%; Total imp [4]: 0.12%; Description [5]: Cream; SMI (single maximum impurity) [5]: 0.06%; Total imp [5]: 0.11%
